Test results taken from patent publication EP0038629A1, “Virazole derivatives, process for their preparation and use as antiviral agents” (priority 1980, dated 1981).

Experiments:
[1] = tested on: influenza A/Port Chalmers/1/73 (H3N2) virus; experiment: Plaque reduction assay; assay type: cell-based; details: MDCK cells; for inhibition at 1.3 µM / inhibition at 4.1 µM / inhibition at 13 µM / inhibition at 41 µM / inhibition at 130 µM / inhibition at 410 µM: Influenza A virus, H3N2, read-out: % Plaque Reduction at Concentration Given
Source text: More accurate quantitation of antiviral activity was achieved by incorporated of concentrations of the test compound varying from 1.3 x 10^-6M to 4.1 x 10^-4M into the agar overlay above the influenza A/Port Chalmers/1/73 (H3N2) virus infected MDCK cell monolayers. The % reduction in the number of virus induced plaques at each compound concentration is given below.

[2] = tested on: MDCK cell monolayers; details: diameter of zone with apparent cytotoxicity; 0.02 ml of 1 mg/ml solution in 6 mm well
[3] = tested on: influenza A/Port Chalmers/l/73 (H3N2) virus; experiment: Diffusion test (plaque inhibition zone); assay type: cell-based; details: diameter of plaque-free zone, 0.02 ml of 1 mg/ml solution in 6 mm well, infected MDCK cell monolayers; for zone of inhibition at 1000 µg/mL: Influenza A virus, H3N2, read-out: Active Zone
Protocol: Diffusion Test. 10 mg/ml solutions of the compounds in water were diluted to a concentration of 1 mg/ml with Eagle's minimum essential medium and 0.02 ml introduced into wells 6mm in diameter cut into an agar layer above influenza A/Port Chalmers/l/73 (H3N2) virus infected MDCK cell monolayers. An infection level giving an even distribution of subconfluent plaques was used. The diameters of zones around the wells free from virus induced plaques (inhibition zones) and diameters of zones in which cytotoxicity was apparent are reported.

Molecule	inhibition at 1.3 µM ([1]; 0.13 x 10^-5 M in agar overlay) [%]	inhibition at 4.1 µM ([1]; 0.41 x 10^-5 M in agar overlay) [%]	inhibition at 13 µM ([1]; 1.3 x 10^-5 M in agar overlay) [%]	inhibition at 41 µM ([1]; 4.1 x 10^-5 M in agar overlay) [%]	inhibition at 130 µM ([1]; 13 x 10^-5 M in agar overlay) [%]	inhibition at 410 µM ([1]; 41 x 10^-5 M in agar overlay) [%]	Toxic Zone [2] [mm]	zone of inhibition at 1000 µg/mL [3] [mm]	% Plaque Reduction at Concentration Given ([1]; 0.13 x 10^-5 M in agar overlay, 1.3 µM) [%]	% Plaque Reduction at Concentration Given ([1]; 0.41 x 10^-5 M in agar overlay, 4.1 µM) [%]	% Plaque Reduction at Concentration Given ([1]; 1.3 x 10^-5 M in agar overlay, 13 µM) [%]	% Plaque Reduction at Concentration Given ([1]; 4.1 x 10^-5 M in agar overlay, 41 µM) [%]	% Plaque Reduction at Concentration Given ([1]; 13 x 10^-5 M in agar overlay, 130 µM) [%]	% Plaque Reduction at Concentration Given ([1]; 41 x 10^-5 M in agar overlay, 410 µM) [%]	Active Zone [3] [mm]
NC(=O)c1ncn([C@@H]2O[C@H](CO)[C@@H](O)[C@H]2O)n1 [Compound 1, 1-β-D-ribofuranosyl-3-carbamoyl-1,2,4-triazole, reference compound]	0	43	94	100	100	100	0	28	–	–	–	–	–	–	–
NC(=O)c1ncn([C@@H]2O[C@H](COC(=O)CCC(=O)O)[C@H]3OC(=O)O[C@H]32)n1 [Compound 5, 1-[β-D-(5'-succinyl-2',3'-carbonyl)ribofuranosyl]-3-carbamoyl-1,2,4,-triazole]	0	0	0	0	0	0	0	17	–	–	–	–	–	–	–
1-[β-D-(5'-succinyl-2',3'-carbonyl)ribofuranosyl]-3-carbamoyl-1,2,4-triazole amantadine salt [Compound 6]	–	–	–	–	–	–	0	–	44	63	89	100	100	100	55
